Results taken from article PMC9237828, “Chemically Tuning Resveratrol for the Effective Killing of Gram-Positive Pathogens” (Journal of Natural Products, 2022).
Converted amounts (≈) assume the structure as drawn. Where two headings read alike, the source gives them in different places. Non-standard residues stand in square brackets, D forms with d. Residues, ends and D or L forms follow the SMILES beside them. Orn = NCCC[C@H](N)C(=O)O

What was measured:
S.aureus LMG15975 = experiment: microbe, parasite or virus in culture; assay type: cell-based, Staphylococcus aureus
B. cereus ATCC10987 [1] = experiment: Effect of the compounds on actively growing bacteria (lysis, OD600); assay type: cell-based, Bacillus cereus
C. ihumii AP5 = experiment: MIC test, anaerobes; assay type: cell-based; settings: 24 h, read-out: Minimal Inhibition Concentration (MIC) C. ihumii AP5
Method: (§1) The resveratrol derivatives were serially diluted in cMHB (BD Difco) in 96-well microplates. Plates were then inoculated with the indicator bacteria at a final concentration of 5 × 10^5 CFU/mL and incubated at 37 °C for 20 h. In the case of the anaerobic bacteria (Clostridium and Clostridioides), the test was performed following the recommendation of CLSI for anaerobes[77] but using RCM medium instead of cMHB. The cultures were cultivated inside an anaerobic chamber at 37 °C for 24 h. All the tests were performed in triplicate.

C. beijerinckii B504 = experiment: MIC test, anaerobes; assay type: cell-based
Method: as §1

E. faecium LMG11423 = experiment: microbe, parasite or virus in culture; assay type: cell-based
[2] = system: B. cereus ATCC 10987, E. faecalis V583, E. faecium LMG 16003, and S. aureus LMG 8224; assay type: cell-based; settings: 2-fold the MIC, 24 h, cMHB
S.aureus LMG8224 = experiment: microbe, parasite or virus in culture; assay type: cell-based, Staphylococcus aureus
E. faecalis LMG08222 = experiment: microbe, parasite or virus in culture; assay type: cell-based, Enterococcus faecalis
C. tetani CECT4629 = experiment: microbe, parasite or virus in culture; assay type: cell-based
E. faecium LMG16003 = experiment: microbe, parasite or virus in culture; assay type: cell-based
[3] = system: E. faecium LMG16003 and S. aureus LMG82224; experiment: Combination with 24 traditional antibiotics, overall outcome; assay type: cell-based
C. difficile CECT531 = experiment: microbe, parasite or virus in culture; assay type: cell-based, Clostridioides difficile; settings: for MIC: Clostridioides difficile, CECT531, 24 h, read-out: Minimal Inhibition Concentration (MIC) C. difficile CECT531
C. botulinum CECT551 = experiment: microbe, parasite or virus in culture; assay type: cell-based
E. faecalis LMG16216 = experiment: microbe, parasite or virus in culture; assay type: cell-based, Enterococcus faecalis
B. cereus ATCC14579 = experiment: microbe, parasite or virus in culture; assay type: cell-based, Bacillus cereus; settings: for MIC: Bacillus cereus, ATCC14579, 20 h, read-out: Minimal Inhibition Concentration (MIC) B. cereus ATCC14579
B. cereus ATCC10987 [4] = experiment: microbe, parasite or virus in culture; assay type: cell-based, Bacillus cereus; settings: for MIC: Bacillus cereus, ATCC10987, 20 h, read-out: Minimal Inhibition Concentration (MIC) B. cereus ATCC10987
E. coli LMG8224 = experiment: Outer membrane permeabilization test (MIC with or without L-11 peptide); settings: for MIC (μM) L-11 + 4 μM: presence of 4 μM L-11 outer-membrane-perturbing peptide; for MIC: Escherichia coli, LMG8224, read-out: MIC (μM) L-11 + 0 μM
S.aureus LMG10147 = experiment: microbe, parasite or virus in culture; assay type: cell-based, Staphylococcus aureus; settings: for MIC: Staphylococcus aureus, LMG10147, 20 h, read-out: Minimal Inhibition Concentration (MIC) S.aureus LMG10147
E. faecalis V583 = experiment: microbe, parasite or virus in culture; assay type: cell-based, Enterococcus faecalis; settings: for MIC: Enterococcus faecalis, V583, 20 h, read-out: Minimal Inhibition Concentration (MIC) E. faecalis V583
C. perfringens CECT376 = experiment: microbe, parasite or virus in culture; assay type: cell-based; settings: for MIC: Clostridium perfringens, CECT376, 24 h, read-out: Minimal Inhibition Concentration (MIC) C. perfringens CECT376
B. cereus ATCC10987 [5] = experiment: Membrane potential assay DiSC3(5); settings: 2×, 1×, and 0.5× the MIC
Enterococcus strains = experiment: Time killing kinetic and minimal bactericidal concentration, Enterococcus; assay type: cell-based
in vitro = settings: human
[6] = system: panel of aerobic and anaerobic Gram-positive bacteria; experiment: organism not typed; assay type: cell-based
B. cereus ATCC10987 [7] = experiment: Intracellular ATP level quantification (BacTiter-Glo); settings: 32 μM of the compounds (100 μM for CCCP), 30, 60, and 120 min, 37 °C
S. aureus = system: S. aureus; parameters: method as in PMID 29906565; settings: cited from earlier work
B. cereus ATTC10987 = experiment: Membrane integrity assay (propidium iodide uptake); assay type: cell-based, Bacillus cereus; settings: 2×, 1×, and 0.5× the MIC
Method: B. cereus ATTC10987 was grown in LB with shaking at 37 °C for 18 h. After that, the cells were centrifuged and washed in 5 mM HEPES buffer (pH 7.4) plus 5 mM glucose (G-HEPES buffer) three times, adjusted to an OD600 of 0.5 in the same buffer plus 10 μg/mL of propidium iodide (Sigma-Aldrich), and incubated for 10 min at 37 °C. This is a nonfluorescent dye impermeable to the bacterial membranes, but, if the membranes are disturbed, the dye can enter by binding the DNA, providing a strong fluorescent signal. […] The experiment was performed in triplicate.

[8] = system: B. cereus ATCC10987 respiratory chain; experiment: Activity of the respiratory chain (resazurin reduction); assay type: cell-based, Bacillus cereus; settings: dose-related, 125 min
Method: The effect of the resveratrol derivatives on the B. cereus ATCC10987 respiratory chain was measured by the reduction of resazurin to the fluorescent resorufin. The bacteria were cultured in LB medium at 37 °C to an OD600 of 1. Then, the cells were washed three times in cMHB and resuspended in this medium at a final OD600 of 0.2. Resazurin at 100 μg/mL was added to the cells that were distributed in a 96-well plate. […] No treated cells and just MHB medium with resazurin were used as negative controls. All the tests were performed in triplicate.

[9] = Table 1, 128 to 2 μM, RCM medium, anaerobic, 24 h

Compound: 4′-tert-butyldimethylsilyl resveratrol [compound 17]
- Minimal Inhibition Concentration (MIC) S.aureus LMG15975 (S.aureus LMG15975): 8 ± 0 µM
- effect on actively growing cells (B. cereus ATCC10987 [1]; at 2× the MIC): bactericidal
- effect on actively growing cells (B. cereus ATCC10987 [1]; at the MIC concentration): bacteriostatic
- IC50 (MRC5 cells): 15.5 ± 1.3 µM
- MIC (C. ihumii AP5; Table 1, 128 to 2 μM, RCM medium, anaerobic): 16 µM
- Minimal Inhibition Concentration (MIC) C. beijerinckii B504 (C. beijerinckii B504; [9]): 10.6 ± 2.6 µM
- Minimal Inhibition Concentration (MIC) E. faecium LMG11423 (E. faecium LMG11423): 8 ± 0 µM
- bactericidal/bacteriostatic effect [2]: bactericidal
- Minimal Inhibition Concentration (MIC) S.aureus LMG8224 (S.aureus LMG8224): 8 ± 0 µM
- Minimal Inhibition Concentration (MIC) E. faecalis LMG08222 (E. faecalis LMG08222): 6.6 ± 1.3 µM
- Minimal Inhibition Concentration (MIC) C. tetani CECT4629 (C. tetani CECT4629; [9]): 5.3 ± 1.3 µM
- Minimal Inhibition Concentration (MIC) E. faecium LMG16003 (E. faecium LMG16003): 8 ± 0 µM
- combined effect with traditional antibiotics [3]: an additive effect was mainly observed
- Minimal Inhibition Concentration (MIC) C. difficile CECT531 (C. difficile CECT531): 21.3 ± 5.3 µM
- Minimal Inhibition Concentration (MIC) C. botulinum CECT551 (C. botulinum CECT551; [9]): 13.3 ± 2.6 µM
- Minimal Inhibition Concentration (MIC) E. faecalis LMG16216 (E. faecalis LMG16216): 8 ± 0 µM
- Minimal Inhibition Concentration (MIC) B. cereus ATCC14579 (B. cereus ATCC14579): 4 ± 0 µM
- Minimal Inhibition Concentration (MIC) B. cereus ATCC10987 (B. cereus ATCC10987 [4]): 8 ± 0 µM
- MIC (μM) L-11 + 0 μM (E. coli LMG8224; absence of L-11 outer-membrane-perturbing peptide): >128 µM
- MIC (μM) L-11 + 4 μM (E. coli LMG8224): 13.3 ± 2.6 µM
- Minimal Inhibition Concentration (MIC) S.aureus LMG10147 (S.aureus LMG10147): 8 ± 0 µM
- Minimal Inhibition Concentration (MIC) E. faecalis V583 (E. faecalis V583): 8 ± 0 µM
- Minimal Inhibition Concentration (MIC) C. perfringens CECT376 (C. perfringens CECT376): 13.3 ± 2.6 µM

Compound: CC(C)C[C@@H]1NC(=O)[C@H](CCCN)NC(=O)[C@H](C(C)C)NC(=O)[C@@H]2CCCN2C(=O)[C@@H](Cc2ccccc2)NC(=O)[C@H](CC(C)C)NC(=O)[C@H](CCCN)NC(=O)[C@H](C(C)C)NC(=O)[C@@H]2CCCN2C(=O)[C@@H](Cc2ccccc2)NC1=O [gramicidin S, Gramicidin S] (cyclo(V[Orn]L[dF]PV[Orn]L[dF]P))
- membrane potential change (DiSC3(5)) (B. cereus ATCC10987 [5]): induced a strong membrane depolarization

Compound: CCCCOc1cc(/C=C/c2ccc(OS(=O)(=O)O)cc2)cc(OS(=O)(=O)O)c1 [compound 15, 3-butyl-4′,5-disulfate resveratrol]
- effect on actively growing cells (B. cereus ATCC10987 [1]; at 2× the MIC): bactericidal
- effect on actively growing cells (B. cereus ATCC10987 [1]; at the MIC concentration): bacteriostatic
- bactericidal/bacteriostatic effect (Enterococcus strains; Enterococcus strains, 2-fold the MIC, 24 h, minimal bactericidal concentration test): bacteriostatic
- MBC (Enterococcus strains; Enterococcus, read-out: minimal bactericidal concentration (bacteria grew after the treatment)): > 128 µM
- IC50 (in vitro): 24.9 ± 4 µM
- combined effect with traditional antibiotics [3]: strong synergistic effects
- MIC (C. difficile CECT531): 64 µM (≈ 28.4 µg/mL)
- MIC (B. cereus ATCC14579): 6.6 ± 1.3 µM (≈ 2.93 µg/mL)
- MIC (B. cereus ATCC10987 [4]): 8 µM (≈ 3.56 µg/mL)
- MIC (E. coli LMG8224): > 128 µM
- MIC (S.aureus LMG10147): 8 µM (≈ 3.56 µg/mL)
- MIC (E. faecalis V583): 26.6 ± 5.3 µM (≈ 11.8 µg/mL)
- MIC (C. perfringens CECT376): 26.6 ± 5.3 µM (≈ 11.8 µg/mL)
- antibacterial activity against the Gram-positive panel [6]: active against all Gram-positive bacterial strains examined

Compound: Oc1ccc(/C=C/c2cc(O)cc(O)c2)cc1 [compound 1, Resveratrol]
- membrane potential change (DiSC3(5)) (B. cereus ATCC10987 [5]): did not induce any membrane potential change
- IC50 at 72 h (in vitro): 56.6 ± 3.2 µM
- intracellular ATP levels (B. cereus ATCC10987 [7]): did not statistically affect the ATP levels
- concentration 0.5× the MIC at which additive effects with aminoglycosides were obtained (S. aureus): about 560 μM
- membrane permeabilization (propidium iodide uptake) (B. cereus ATTC10987): did not induce any effect on membrane permeability
- effect on the respiratory chain (reduction of resazurin) [8]: No effect

Compound: CC(C)[Si](Oc1cc(O)cc(/C=C/c2ccc(O)cc2)c1)(C(C)C)C(C)C [compound 32]
- MIC (S.aureus LMG15975; Staphylococcus aureus, LMG15975, 20 h, read-out: Minimal Inhibition Concentration (MIC) S.aureus LMG15975): 8 µM (≈ 3.08 µg/mL)
- lysis of actively growing cells (B. cereus ATCC10987 [1]; 2×, 1×, and 0.5× the MIC added at mid exponential phase): most effective derivatives lysing the cells
- MIC (C. ihumii AP5): 16 µM (≈ 6.15 µg/mL)
- MIC (C. beijerinckii B504; Clostridium beijerinckii, B504, 24 h, read-out: Minimal Inhibition Concentration (MIC) C. beijerinckii B504): 10.7 ± 2.6 µM (≈ 4.12 µg/mL)
- IC50 (in vitro): 1.8 ± 0.1 µM
- intracellular ATP levels (B. cereus ATCC10987 [7]): reduced dramatically the ATP levels
- MIC (E. faecium LMG11423; Enterococcus faecium, LMG11423, 20 h, read-out: Minimal Inhibition Concentration (MIC) E. faecium LMG11423): 4 µM (≈ 1.54 µg/mL)
- bactericidal/bacteriostatic effect [2]: bactericidal
- MIC (S.aureus LMG8224; Staphylococcus aureus, LMG8224, 20 h, read-out: Minimal Inhibition Concentration (MIC) S.aureus LMG8224): 8 µM (≈ 3.08 µg/mL)
- MIC (E. faecalis LMG08222; Enterococcus faecalis, LMG08222, 20 h, read-out: Minimal Inhibition Concentration (MIC) E. faecalis LMG08222): 4 µM (≈ 1.54 µg/mL)
- MIC (C. tetani CECT4629; Clostridium tetani, CECT4629, 24 h, read-out: Minimal Inhibition Concentration (MIC) C. tetani CECT4629): 5.3 ± 1.3 µM (≈ 2.04 µg/mL)
- MIC (E. faecium LMG16003; Enterococcus faecium, LMG16003, 20 h, read-out: Minimal Inhibition Concentration (MIC) E. faecium LMG16003): 4 µM (≈ 1.54 µg/mL)
- MIC (C. difficile CECT531): 16 µM (≈ 6.15 µg/mL)
- MIC (C. botulinum CECT551; Clostridium botulinum, CECT551, 24 h, read-out: Minimal Inhibition Concentration (MIC) C. botulinum CECT551): 8 µM (≈ 3.08 µg/mL)
- MIC (E. faecalis LMG16216; Enterococcus faecalis, LMG16216, 20 h, read-out: Minimal Inhibition Concentration (MIC) E. faecalis LMG16216): 4 µM (≈ 1.54 µg/mL)
- MIC (B. cereus ATCC14579): 8 µM (≈ 3.08 µg/mL)
- MIC (B. cereus ATCC10987 [4]): 8 µM (≈ 3.08 µg/mL)
- MIC (E. coli LMG8224): > 128 µM
- MIC (μM) L-11 + 4 μM (E. coli LMG8224): 8 ± 0 µM
- MIC (S.aureus LMG10147): 8 µM (≈ 3.08 µg/mL)
- MIC (E. faecalis V583): 8 µM (≈ 3.08 µg/mL)
- effect on the respiratory chain (reduction of resazurin) [8]: comparable to or even higher than that of the proton ionophore decoupler of the electron transport chain CCCP
- MIC (C. perfringens CECT376): 16 µM (≈ 6.15 µg/mL)
